Assay results: patent US9783537B2, “3-(4-ethylnylphenyl) pyridopyrimidinone compounds and process for preparation thereof useful as potential anticancer agents” (Council of Scientific & Industrial Research, priority 2013, dated 2017)
Like-named read-outs stand apart in the source and are kept apart here.

Columns and labels:
K-562 = assay: SRB 48 h growth assay, Leukemia K-562; assay type: cell-based, human
SK-MEL-5 = assay: SRB 48 h growth assay, Melanoma SK-MEL-5; assay type: cell-based, human; conditions: SK-MEL-5, Melanoma
NCI-H522 = assay: SRB 48 h growth assay, Non-small Cell Lung NCI-H522; assay type: cell-based, human
A549/ATCC = assay: SRB 48 h growth assay, Non-small Cell Lung A549/ATCC; assay type: cell-based, human
SNB-75 = assay: SRB 48 h growth assay, CNS SNB-75; assay type: cell-based, human; conditions: SNB-75, CNS
HOP-92 = assay: SRB 48 h growth assay, Non-small Cell Lung HOP-92; assay type: cell-based, human; conditions: HOP-92, Non-small Cell Lung
UACC-257 = assay: SRB 48 h growth assay, Melanoma UACC-257; assay type: cell-based, human; conditions: Homo sapiens, UACC-257, Melanoma
MDA-MB-468 = assay: SRB 48 h growth assay, Breast MDA-MB-468; assay type: cell-based, human; conditions: MDA-MB-468, Breast
[1] = in vitro anticancer activity, melanoma panel; assay type: cell-based; conditions: Homo sapiens; nine melanoma cell lines, exposure at least 48 h; read-out: GI50, range over panel
[2] = system: six breast cancer cell line (MCF-7, MDA-MB-231/ATCC, HS 578T, TD-47D, MDA-MB-468 and BT-549); assay: in vitro anticancer activity, breast panel; assay type: cell-based; conditions: Homo sapiens; six breast cancer cell lines, exposure at least 48 h; read-out: GI50, range over panel
TK-10 = assay: SRB 48 h growth assay, Renal TK-10; assay type: cell-based, human; conditions: TK-10, Renal
SNB-19 = assay: SRB 48 h growth assay, CNS SNB-19; assay type: cell-based, human; conditions: SNB-19, CNS
ACHN = assay: SRB 48 h growth assay, Renal ACHN; assay type: cell-based, human
NCI-H226 = assay: SRB 48 h growth assay, Non-small Cell Lung NCI-H226; assay type: cell-based, human; conditions: Homo sapiens
[3] = system: six leukemia cancer cell lines (CCRF-CEM, HL-60, K-562, MOLT-4, SR and RPMI-8226); assay: in vitro anticancer activity, leukemia panel; assay type: cell-based; conditions: Homo sapiens, exposure at least 48 h, read-out: GI50, range over panel
BT-549 = assay: SRB 48 h growth assay, Breast BT-549; assay type: cell-based, human; conditions: BT-549, Breast
CCRF-CEM = assay: SRB 48 h growth assay, Leukemia CCRF-CEM; assay type: cell-based, human
RXF393 = assay: SRB 48 h growth assay, Renal RXF393; assay type: cell-based, human
[4] = system: six CNS cancer cell line (SF-268, SF-295, SF-539, SNB-19, SNB-75 and U251); assay: in vitro anticancer activity, CNS panel; assay type: cell-based; conditions: Homo sapiens; six CNS cancer cell lines, exposure at least 48 h; read-out: GI50, range over panel
[5] = system: seven ovarian cancer cell lines (IGROV1, OVCAR-3, OVCAR-4, OVCAR-5, OVCAR-8, NCI/ADR-RES and SK-OV-3); assay: in vitro anticancer activity, ovarian panel; assay type: cell-based; conditions: Homo sapiens, exposure at least 48 h, read-out: GI50, range over panel
SW-620 = assay: SRB 48 h growth assay, Colon SW-620; assay type: cell-based, human; conditions: Homo sapiens, SW-620, Colon
OVCAR-8 = assay: SRB 48 h growth assay, Ovarian OVCAR-8; assay type: cell-based, human; conditions: OVCAR-8, Ovarian
MDA-MB-435 = assay: SRB 48 h growth assay, Melanoma MDA-MB-435; assay type: cell-based, human; conditions: MDA-MB-435, Melanoma
DU-145 = assay: SRB 48 h growth assay, Prostate DU-145; assay type: cell-based, human; conditions: DU-145, Prostate
PC-3 = assay: SRB 48 h growth assay, Prostate PC-3; assay type: cell-based, human; conditions: PC-3, Prostate
HS578T = assay: SRB 48 h growth assay, Breast HS578T; assay type: cell-based, human
[6] = Homo sapiens, read-out: Growth Inhibition GI50
[7] = Homo sapiens, read-out: Log10 GI50 (converted)
[8] = Homo sapiens, read-out: Log10 LC50 (converted)
[9] = read-out: Growth Inhibition GI50
[10] = read-out: Log10 GI50 (converted)

C#Cc1ccc(-n2c(/C=C/c3ccc4ccccc4c3)nc3ncccc3c2=O)cc1 [4s, (E)-3-(4-Ethynylphenyl)-2-(2-(naphthalen-2-yl)vinyl)pyrido[2,3-d]pyrimidin-4(3H)-one]
GI50 (K-562; Homo sapiens, K562, K-562, Leukemia, read-out: Growth Inhibition GI50): 2430 nM
GI50 (K-562; Homo sapiens, K562, K-562, Leukemia, read-out: Log10 GI50 (converted)): 2450 nM
CC50 (K-562; Homo sapiens, K562, K-562, Leukemia, read-out: Log10 LC50 (converted)): > 100000 nM
Log10 TGI50 (K-562; K-562, Leukemia): ->−4.00
GI50 (SK-MEL-5; [6]): 1160 nM
GI50 (SK-MEL-5; [7]): 1150 nM
CC50 (SK-MEL-5; [8]): 2510 nM
Log10 TGI50 (SK-MEL-5): −5.60
Log10 TGI50 (NCI-H522): >−4.00
GI50 (NCI-H522; [6]): 5110 nM
GI50 (NCI-H522; [7]): 5130 nM
CC50 (NCI-H522; [8]): > 100000 nM
Log10 TGI50 (A549/ATCC): >−4.00
GI50 (A549/ATCC; [6]): 2730 nM
GI50 (A549/ATCC; [7]): 2750 nM
CC50 (A549/ATCC; [8]): > 100000 nM
GI50 (SNB-75; [6]): 3690 nM
GI50 (SNB-75; [7]): 2950 nM
CC50 (SNB-75; [8]): > 100000 nM
Log10 TGI50 (SNB-75): >−4.00
Log10 TGI50 (HOP-92): −5.16
GI50 (HOP-92; [6]): 1630 nM
GI50 (HOP-92; [7]): 1620 nM
CC50 (HOP-92; [8]): 6920 nM
GI50 (UACC-257; [9]): 2110 nM
GI50 (UACC-257; [10]): 2090 nM
GI50 (MDA-MB-468; [6]): 960 nM
GI50 (MDA-MB-468; [7]): 955 nM
CC50 (MDA-MB-468; [8]): 7760 nM
Log10 TGI50 (MDA-MB-468): −5.11
GI50 [1]: 190 to 1210 nM
GI50 [2]: 230 to 350 nM
GI50 (TK-10; [6]): 4040 nM
GI50 (TK-10; [7]): 4070 nM
CC50 (TK-10; [8]): > 100000 nM
Log10 TGI50 (TK-10): >−4.00
GI50 (SNB-19; [6]): 2950 nM
CC50 (SNB-19; [8]): > 100000 nM
Log10 TGI50 (SNB-19): >−4.00
Log10 TGI50 (ACHN): >−4.00
GI50 (ACHN; [6]): 2570 nM
GI50 (ACHN; [7]): 2570 nM
CC50 (ACHN; [8]): > 100000 nM
GI50 (NCI-H226; [9]): 2330 nM
GI50 (NCI-H226; [10]): 2340 nM
GI50 [3]: 260 to 450 nM
Log10 TGI50 (BT-549): −5.26
GI50 (BT-549; [6]): 1980 nM
GI50 (BT-549; [7]): 2000 nM
CC50 (BT-549; [8]): 5500 nM
Log10 TGI50 (CCRF-CEM): >−4.00
CC50 (CCRF-CEM; Homo sapiens, CCKF-CEM, read-out: Log10 LC50 (converted)): > 100000 nM
GI50 (CCRF-CEM; [6]): 1530 nM
GI50 (CCRF-CEM; [7]): 1510 nM
Log10 TGI50 (RXF393): −5.26
GI50 (RXF393; Homo sapiens, RXF 393, read-out: Growth Inhibition GI50): 1790 nM
GI50 (RXF393; Homo sapiens, RXF 393, read-out: Log10 GI50 (converted)): 1780 nM
CC50 (RXF393; Homo sapiens, RXF 393, read-out: Log10 LC50 (converted)): 5500 nM
GI50 [4]: 200 to 720 nM
GI50 [5]: 300 to 400 nM
GI50 (SW-620; [9]): 2220 nM
GI50 (SW-620; [10]): 2240 nM
GI50 (OVCAR-8; [6]): 3050 nM
GI50 (OVCAR-8; [7]): 3020 nM
CC50 (OVCAR-8; [8]): > 100000 nM
Log10 TGI50 (OVCAR-8): >−4.00
GI50 (MDA-MB-435; [6]): 2060 nM
GI50 (MDA-MB-435; [7]): 2040 nM
CC50 (MDA-MB-435; [8]): > 100000 nM
Log10 TGI50 (MDA-MB-435): >−4.00
Log10 TGI50 (DU-145): >−4.00
GI50 (DU-145; [6]): 7450 nM
GI50 (DU-145; [7]): 7410 nM
CC50 (DU-145; [8]): > 100000 nM
GI50 (PC-3; [6]): 2350 nM
GI50 (PC-3; [7]): 2340 nM
CC50 (PC-3; [8]): > 100000 nM
Log10 TGI50 (PC-3): >−4.00
Log10 TGI50 (HS578T): >−4.00
GI50 (HS578T; Homo sapiens, Hs-578T, read-out: Growth Inhibition GI50): 7620 nM
GI50 (HS578T; Homo sapiens, Hs-578T, read-out: Log10 GI50 (converted)): 7590 nM
CC50 (HS578T; Homo sapiens, Hs-578T, read-out: Log10 LC50 (converted)): > 100000 nM
